In patent US6737383B1, “Herbicidal oxadiazolidines” (priority 1999, dated 2004):

Legend:
[1] = system: cocklebur; test: Test B pre/postemergence cocklebur; type: in vivo, Xanthium strumarium
Method in brief: (§1)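 Test chemicals in a non-phytotoxic solvent mixture with surfactant were sprayed preemergence onto planted seeds and postemergence onto plants 2 to 18 cm tall (1- to 4-leaf stage). After twelve to sixteen days in a greenhouse, injury was visually rated against untreated controls from 0 (no effect) to 10 (complete control).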

[2] = system: purple nutsedge; test: Test B pre/postemergence purple nutsedge; type: in vivo, Cyperus rotundus
Method in brief: as §1

[3] = system: blackgrass; test: Test B pre/postemergence blackgrass; type: in vivo, Alopecurus myosuroides
Method in brief: as §1

[4] = system: bedstraw; test: Test B pre/postemergence bedstraw; type: in vivo, Galium aparine
Method in brief: as §1

[5] = system: wheat; test: Test B pre/postemergence wheat; type: in vivo, Triticum aestivum
Method in brief: as §1

[6] = system: soybean; test: Test B pre/postemergence soybean; type: in vivo, Glycine max
Method in brief: as §1

[7] = system: surinam grass; test: Test B pre/postemergence surinam grass; type: in vivo, Brachiaria decumbens
Method in brief: as §1

[8] = system: crabgrass; test: Test B pre/postemergence crabgrass; type: in vivo, Digitaria sanguinalis
Method in brief: as §1

[9] = system: sugar beet; test: Test B pre/postemergence sugar beet; type: in vivo, Beta vulgaris
Method in brief: as §1

[10] = system: pigweed; test: Test B pre/postemergence pigweed; type: in vivo, Amaranthus retroflexus
Method in brief: as §1

[11] = system: wild oat; test: Test B pre/postemergence wild oat; type: in vivo, Avena fatua
Method in brief: as §1

[12] = system: giant foxtail; test: Test B pre/postemergence giant foxtail; type: in vivo, Setaria faberii
Method in brief: as §1

[13] = system: rape; test: Test B pre/postemergence rape; type: in vivo, Brassica napus
Method in brief: as §1

[14] = system: corn; test: Test B pre/postemergence corn; type: in vivo, Zea mays
Method in brief: as §1

[15] = system: velvetleaf; test: Test B pre/postemergence velvetleaf; type: in vivo, Abutilon theophrasti
Method in brief: as §1

[16] = system: morningglory; test: Test B pre/postemergence morningglory; type: in vivo, Ipomoea hederacea
Method in brief: as §1

[17] = Postemergence, Rate 31 g/ha, visual rating, scale 0 to 10 (0 no effect, 10 complete control)
[18] = Postemergence, Rate 125 g/ha, scale 0 to 10, 0 is no effect, 10 is complete control
[19] = Postemergence, Rate 250 g/ha, scale 0 to 10
[20] = Preemergence, Rate 31 g/ha, visual rating, scale 0 to 10 (0 no effect, 10 complete control)
[21] = Preemergence, Rate 62 g/ha, scale of 0 to 10 where 0 is no effect and 10 is complete control
[22] = Preemergence, Rate 125 g/ha, scale of 0 to 10 where 0 is no effect and 10 is complete control
[23] = Preemergence, Rate 250 g/ha, scale 0 to 10, 0 is no effect, 10 is complete control
[24] = Rate 62 g/ha, Postemergence, scale 0 to 10 (0 no effect, 10 complete control)
[25] = Preemergence, Rate 250 g/ha, scale 0 to 10 (0 no effect, 10 complete control)
[26] = Preemergence, Rate 500 g/ha, scale of 0 to 10 where 0 is no effect and 10 is complete control

Compound: CC(C)N(C(=O)n1oc(=O)n(C(C)C(=O)N(C)C)c1=O)c1ccc(F)cc1F (stereo not drawn) [Compound 481]
- Cocklebur plant response rating [1, 17]: 0
- Cocklebur plant response rating [1, 18]: 0
- Cocklebur plant response rating [1, 19]: 0
- Cocklebur plant response rating [1, 20]: 0
- Plant response rating, Cocklebur [1, 21]: 0
- Plant response rating, Cocklebur [1, 22]: 0
- Cocklebur plant response rating [1, 23]: 0
- Cocklebur plant response rating [1, 24]: 0
- Nutsedge plant response rating [2, 17]: 0
- Nutsedge plant response rating [2, 19]: 0
- Plant response rating, Nutsedge [2, 22]: 4
- Nutsedge plant response rating [2, 23]: 6
- Nutsedge plant response rating [2, 24]: 0
- Blackgrass plant response rating [3, 17]: 0
- Blackgrass plant response rating [3, 18]: 0
- Blackgrass plant response rating [3, 19]: 2
- Blackgrass plant response rating [3, 20]: 3
- Plant response rating, Blackgrass [3, 21]: 6
- Plant response rating, Blackgrass [3, 22]: 6
- Blackgrass plant response rating [3, 23]: 10
- Blackgrass plant response rating [3, 24]: 0
- Bedstraw plant response rating [4, 20]: 0
- Plant response rating, Bedstraw [4, 21]: 0
- Plant response rating, Bedstraw [4, 22]: 0
- Bedstraw plant response rating [4, 24]: 0
- Wheat plant response rating [5, 17]: 0
- Wheat plant response rating [5, 18]: 0
- Wheat plant response rating [5, 19]: 0
- Plant response rating, Wheat [5, 21]: 0
- Plant response rating, Wheat [5, 22]: 3
- Wheat plant response rating [5, 23]: 2
- Wheat plant response rating [5, 24]: 0
- Soybean plant response rating [6, 17]: 4
- Soybean plant response rating [6, 18]: 4
- Soybean plant response rating [6, 19]: 4
- Plant response rating, Soybean [6, 21]: 0
- Plant response rating, Soybean [6, 22]: 0
- Soybean plant response rating [6, 23]: 0
- Soybean plant response rating [6, 24]: 4
- B. signalgrass plant response rating [7, 17]: 0
- B. signalgrass plant response rating [7, 18]: 0
- B. signalgrass plant response rating ([7]; Postemergence, Rate 250 g/ha, scale 0 to 10, 0 no effect, 10 complete control): 6
- B. signalgrass plant response rating [7, 20]: 7
- Plant response rating, B. signalgrass [7, 21]: 7
- Plant response rating, B. signalgrass [7, 22]: 9
- B. signalgrass plant response rating [7, 23]: 9
- B. signalgrass plant response rating [7, 24]: 0
- Crabgrass plant response rating [8, 17]: 0
- Crabgrass plant response rating [8, 18]: 2
- Crabgrass plant response rating [8, 19]: 2
- Crabgrass plant response rating [8, 20]: 7
- Plant response rating, Crabgrass [8, 21]: 7
- Plant response rating, Crabgrass [8, 22]: 8
- Crabgrass plant response rating [8, 23]: 8
- Crabgrass plant response rating [8, 24]: 0
- Sugarbeets plant response rating [9, 17]: 0
- Sugarbeets plant response rating [9, 18]: 0
- Sugarbeets plant response rating [9, 19]: 0
- Plant response rating, Sugarbeets [9, 21]: 0
- Plant response rating, Sugarbeets [9, 22]: 0
- Sugarbeets plant response rating [9, 23]: 2
- Sugarbeets plant response rating [9, 24]: 0
- Redroot pigweed plant response rating [10, 17]: 0
- Redroot pigweed plant response rating [10, 18]: 0
- Redroot pigweed plant response rating [10, 19]: 0
- Plant response rating, Redroot pigweed [10, 21]: 0
- Plant response rating, Redroot pigweed [10, 22]: 0
- Redroot pigweed plant response rating [10, 23]: 3
- Redroot pigweed plant response rating [10, 24]: 0
- Wild oats plant response rating [11, 17]: 0
- Wild oats plant response rating [11, 18]: 0
- Wild oats plant response rating [11, 19]: 0
- Plant response rating, Wild oats [11, 21]: 4
- Plant response rating, Wild oats [11, 22]: 6
- Wild oats plant response rating [11, 23]: 8
- Wild oats plant response rating [11, 24]: 0
- Giant foxtail plant response rating [12, 17]: 0
- Giant foxtail plant response rating [12, 18]: 2
- Giant foxtail plant response rating [12, 19]: 8
- Giant foxtail plant response rating [12, 20]: 8
- Plant response rating, Giant foxtail [12, 21]: 9
- Plant response rating, Giant foxtail [12, 22]: 9
- Giant foxtail plant response rating [12, 23]: 9
- Giant foxtail plant response rating [12, 24]: 2
- Rape plant response rating [13, 17]: 0
- Rape plant response rating [13, 18]: 0
- Rape plant response rating [13, 19]: 0
- Plant response rating, Rape [13, 21]: 0
- Plant response rating, Rape [13, 22]: 0
- Rape plant response rating [13, 23]: 0
- Rape plant response rating [13, 24]: 0
- Corn plant response rating [14, 17]: 0
- Corn plant response rating [14, 18]: 3
- Corn plant response rating [14, 19]: 3
- Corn plant response rating [14, 20]: 0
- Plant response rating, Corn [14, 21]: 0
- Plant response rating, Corn [14, 22]: 0
- Corn plant response rating [14, 23]: 0
- Corn plant response rating [14, 24]: 0
- Velvetleaf plant response rating [15, 17]: 0
- Velvetleaf plant response rating [15, 18]: 0
- Velvetleaf plant response rating [15, 19]: 0
- Plant response rating, Velvetleaf [15, 21]: 0
- Plant response rating, Velvetleaf [15, 22]: 0
- Velvetleaf plant response rating [15, 23]: 0
- Velvetleaf plant response rating [15, 24]: 0
- Morningglory plant response rating [16, 17]: 0
- Morningglory plant response rating [16, 18]: 0
- Morningglory plant response rating [16, 19]: 2
- Plant response rating, Morningglory [16, 21]: 0
- Plant response rating, Morningglory [16, 22]: 0
- Morningglory plant response rating [16, 23]: 0
- Morningglory plant response rating [16, 24]: 0

Compound: CC(C)N(C(=O)n1oc(=O)n(CC(Cl)Cl)c1=O)c1ccc(F)cc1F [Compound 673]
- Cocklebur plant response rating [1, 21]: 0
- Plant response rating, Cocklebur [1, 22]: 0
- Plant response rating, Cocklebur [1, 25]: 0
- Plant response rating, Cocklebur [1, 26]: 2
- Nutsedge plant response rating [2, 21]: 0
- Plant response rating, Nutsedge [2, 22]: 0
- Plant response rating, Nutsedge [2, 25]: 2
- Plant response rating, Nutsedge [2, 26]: 6
- Blackgrass plant response rating [3, 21]: 3
- Plant response rating, Blackgrass [3, 22]: 8
- Plant response rating, Blackgrass [3, 25]: 9
- Plant response rating, Blackgrass [3, 26]: 9
- Bedstraw plant response rating [4, 21]: 3
- Plant response rating, Bedstraw [4, 25]: 4
- Plant response rating, Bedstraw [4, 26]: 6
- Wheat plant response rating [5, 21]: 0
- Plant response rating, Wheat [5, 22]: 0
- Plant response rating, Wheat [5, 25]: 0
- Soybean plant response rating [6, 21]: 0
- Plant response rating, Soybean [6, 22]: 0
- Plant response rating, Soybean [6, 25]: 0
- Plant response rating, Soybean [6, 26]: 0
- B. signalgrass plant response rating [7, 21]: 4
- Plant response rating, B. signalgrass [7, 22]: 6
- Plant response rating, B. signalgrass [7, 25]: 7
- Plant response rating, B. signalgrass [7, 26]: 8
- Crabgrass plant response rating [8, 21]: 4
- Plant response rating, Crabgrass [8, 22]: 8
- Plant response rating, Crabgrass [8, 25]: 10
- Plant response rating, Crabgrass [8, 26]: 10
- Sugarbeets plant response rating [9, 21]: 0
- Plant response rating, Sugarbeets [9, 22]: 0
- Plant response rating, Sugarbeets [9, 25]: 3
- Plant response rating, Sugarbeets [9, 26]: 3
- Redroot pigweed plant response rating [10, 21]: 6
- Plant response rating, Redroot pigweed [10, 22]: 7
- Plant response rating, Redroot pigweed [10, 25]: 10
- Plant response rating, Redroot pigweed [10, 26]: 10
- Wild oats plant response rating [11, 21]: 5
- Plant response rating, Wild oats [11, 25]: 9
- Plant response rating, Wild oats [11, 26]: 8
- Giant foxtail plant response rating [12, 21]: 9
- Plant response rating, Giant foxtail [12, 22]: 10
- Plant response rating, Giant foxtail [12, 25]: 10
- Plant response rating, Giant foxtail [12, 26]: 10
- Rape plant response rating [13, 21]: 1
- Plant response rating, Rape [13, 22]: 2
- Plant response rating, Rape [13, 25]: 2
- Plant response rating, Rape [13, 26]: 2
- Corn plant response rating [14, 21]: 0
- Plant response rating, Corn [14, 22]: 2
- Plant response rating, Corn [14, 25]: 4
- Plant response rating, Corn [14, 26]: 6
- Velvetleaf plant response rating [15, 21]: 0
- Plant response rating, Velvetleaf [15, 22]: 3
- Plant response rating, Velvetleaf [15, 25]: 3
- Plant response rating, Velvetleaf [15, 26]: 8
- Morningglory plant response rating [16, 21]: 0
- Plant response rating, Morningglory [16, 22]: 0
- Plant response rating, Morningglory [16, 25]: 0
- Plant response rating, Morningglory [16, 26]: 2
